Data as given in patent publication US20260078120A1, “SUBSTITUTED PYRIDOPYRIMIDINONES” (MIRATI THERAPEUTICS, INC., priority 2022, published 2026).
Read-outs that look alike come from different tables or passages of the source.

What was measured:
[1] = system: T47D (PI3Kα H1047R mutant) cells; experiment: CellTiter-Glo 2.0 luminescent cell viability assay, 72 hours, T47D cells; format: cell-based; settings: Homo sapiens, T47D, 72 h
Experimental: This Example illustrates that exemplary compounds of the present invention decrease the viability of cells.
(§1) The ability of a compound of Formula (I) to decrease the viability of cells was measured using CellTiter-Glo 2.0 (CTG) Luminescent Cell Viability Assay (#G9241) obtained from Promega (Madison, WI).
To prepare assay plates for viability assays, cells were trypsinized, resuspended in fresh media, and viable cells were counted utilizing trypan blue exclusion. T47D, SKBR3, or MKN1 cells were seeded at 1000 cells in 30 μl per well in a solid white flat bottom 384 cell culture plate (Perkin Elmer #6007680) and incubated at 37° C. overnight.
(§2) Assay day 1, cells were dosed using an Echo Liquid Handler (Beckman Coulter) with compounds at a 10 um starting concentration and serially diluted (1:4) for a total of 10 concentrations. Cells were incubated for approximately 72 hours with the compounds (solubilized in DMSO) at 37° C. After 72 hours of treatment, cell plates were equilibrated to room temperature before adding 15 μl of CTG to each well, plates were then covered in aluminum foil to protect from light, incubated at room temperature for 30 minutes on a microtiter plate shaker, and luminescence readings were collected using a CLARIOstar microplate reader (BMG Labtech, Germany). Percent of vehicle control values were plotted as log (inhibitor) vs. response-Variable slope (four parameters) for curve fitting and IC50 values were determined using XLfit.

[2] = system: SKBR3 (PI3Kα wild type) cells; experiment: CellTiter-Glo 2.0 luminescent cell viability assay, 72 hours, SKBR3 cells; format: cell-based; settings: Homo sapiens, SK-BR-3, 72 h
Experimental: as §1
To prepare assay plates for viability assays, cells were trypsinized, resuspended in fresh media, and viable cells were counted utilizing trypan blue exclusion.
as §2

[3] = T47D (PI3Kα H1047R mutant) cells, CellTiter-Glo, approximately 72 hours, read-out: T47D (H1047R mutant) Viability IC50
[4] = SKBR3 (PI3Kα wild type) cells, CellTiter-Glo, approximately 72 hours, read-out: SKBR3 (WT) Viability IC50

Row | Structure (SMILES) | IC50 [1, 3] | IC50 [2, 4] | IC50 ([1]; read-out: T47D (H1047R mutant) Viability IC50 (nM)) | IC50 ([2]; read-out: SKBR3 (WT) Viability IC50 (nM))
1 | Cc1cc([C@@H](C)Nc2ccccc2C(=O)O)c2nc(N3CCN(c4cccc(C#N)c4)C[C@H]3C)c(C#N)c(=O)n2c1 [Example 11-84, 2-(((R)-1-(3-cyano-2-((R)-4-(3-cyanophenyl)-2-methylpiperazin-1-yl)-7-methyl-4-oxo-4H-pyrido[1,2-a]pyrimidin-9-yl)ethyl)amino)benzoic acid] | 139 nM | 952 nM |  | 
2 | Cc1cc([C@@H](C)Nc2ccccc2C(=O)O)c2nc(N3C4CCC3CC(c3ccnn3C)C4)c(C)c(=O)n2c1 (stereo partly drawn) [Example 10-2, 2-(((1R)-1-(3,7-dimethyl-2-(3-(1-methyl-1H-pyrazol-5-yl)-8-azabicyclo[3.2.1]octan-8-yl)-4-oxo-4H-pyrido[1,2-a]pyrimidin-9-yl)ethyl)amino)benzoic acid] |  |  | 4.72 nM | > 10000 nM
3 | Cc1cc([C@@H](C)Nc2ccccc2C(=O)O)c2nc(NC[C@H]3CC3(F)F)c(C#N)c(=O)n2c1 [Example 11-156, 2-(((R)-1-(3-cyano-2-((((R)-2,2-difluorocyclopropyl)methyl)amino)-7-methyl-4-oxo-4H-pyrido[1,2-a]pyrimidin-9-yl)ethyl)amino)benzoic acid] | 174 nM | > 10000 nM |  | 
4 | Cc1cc([C@@H](C)Nc2ccccc2C(=O)O)c2nc(NCC3CC(F)(F)C3)c(C#N)c(=O)n2c1 [Example 11-198, (R)-2-((1-(3-cyano-2-(((3,3-difluorocyclobutyl)methyl)amino)-7-methyl-4-oxo-4H-pyrido[1,2-a]pyrimidin-9-yl)ethyl)amino)benzoic acid] | 232 nM | > 10000 nM |  | 
5 | Cc1cc([C@@H](C)Nc2ccccc2C(=O)O)c2nc(N3CCC[C@@H](C(F)(F)F)C3)c(C)c(=O)n2c1 [Example 11-211, 2-(((R)-1-(3,7-dimethyl-4-oxo-2-((R)-3-(trifluoromethyl)piperidin-1-yl)-4H-pyrido[1,2-a]pyrimidin-9-yl)ethyl)amino)benzoic acid] | 520 nM | > 10000 nM |  | 
6 | Cc1cc([C@@H](C)Nc2ccccc2C(=O)O)c2nc(N3CCC(F)(F)[C@H]3C)c(C)c(=O)n2c1 [Example 11-123, 2-(((R)-1-(2-((R)-3,3-difluoro-2-methylpyrrolidin-1-yl)-3,7-dimethyl-4-oxo-4H-pyrido[1,2-a]pyrimidin-9-yl)ethyl)amino)benzoic acid] | 285 nM | > 10000 nM |  | 
7 | Cc1cc([C@@H](C)Nc2ccccc2C(=O)O)c2nc(N3CC4CCC3C(O)C4)c(C)c(=O)n2c1 (stereo partly drawn) [Example 10-147, 2-(((1R)-1-(2-(6-hydroxy-2-azabicyclo[2.2.2]octan-2-yl)-3,7-dimethyl-4-oxo-4H-pyrido[1,2-a]pyrimidin-9-yl)ethyl)amino)benzoic acid] | 107 nM | > 10000 nM |  | 
8 | CO[C@@H]1CCN(c2nc3c([C@@H](C)Nc4ccccc4C(=O)O)cc(C)cn3c(=O)c2C#N)CC1(F)F [Example 11-66, 2-(((R)-1-(3-cyano-2-((R)-3,3-difluoro-4-methoxypiperidin-1-yl)-7-methyl-4-oxo-4H-pyrido[1,2-a]pyrimidin-9-yl)ethyl)amino)benzoic acid] | 231 nM | > 10000 nM |  | 
9 | Cc1cc([C@@H](C)Nc2ccccc2C(=O)O)c2nc(N3CC[C@@H](C)C(F)(F)C3)c(C)c(=O)n2c1 [Example 11-59, 2-(((R)-1-(2-((R)-3,3-difluoro-4-methylpiperidin-1-yl)-3,7-dimethyl-4-oxo-4H-pyrido[1,2-a]pyrimidin-9-yl)ethyl)amino)benzoic acid] | 273 nM | > 10000 nM |  | 
10 | Cc1cc([C@@H](C)Nc2ccccc2C(=O)O)c2nc(NC[C@H]3CCOC3)c(C)c(=O)n2c1 [Example 11-196, 2-(((R)-1-(3,7-dimethyl-4-oxo-2-((((R)-tetrahydrofuran-3-yl)methyl)amino)-4H-pyrido[1,2-a]pyrimidin-9-yl)ethyl)amino)benzoic acid] | 646 nM | > 10000 nM |  | 
11 | Cc1cc([C@@H](C)Nc2ccccc2C(=O)O)c2nc(N3CC(F)(F)C4(CC4)C3)c(C)c(=O)n2c1 [Example 11-61, (R)-2-((1-(2-(7,7-difluoro-5-azaspiro[2.4]heptan-5-yl)-3,7-dimethyl-4-oxo-4H-pyrido[1,2-a]pyrimidin-9-yl)ethyl)amino)benzoic acid] | 145 nM | > 10000 nM |  | 

More lines, main results first:

Row | IC50 [1, 3] | IC50 [2, 4] | Structure (SMILES) | IC50 ([1]; read-out: T47D (H1047R mutant) Viability IC50 (nM)) | IC50 ([2]; read-out: SKBR3 (WT) Viability IC50 (nM))
12 | 144 nM | 9620 nM | Cc1cc([C@@H](C)Nc2ccc(F)cc2C(=O)O)c2nc(N3Cc4ccccc4C3)c(C)c(=O)n2c1 [Example 11-366, (R)-5-fluoro-2-((1-(2-(isoindolin-2-yl)-3,7-dimethyl-4-oxo-4H-pyrido[1,2-a]pyrimidin-9-yl)ethyl)amino)benzoic acid] |  | 
13 | 6300 nM | > 10000 nM | Cc1cc([C@H](C)Nc2ccc(C(F)(F)F)nc2C(=O)O)c2nc(N3Cc4ccccc4C3)c(C)c(=O)n2c1 [Example 11-353, (S)-3-((1-(2-(isoindolin-2-yl)-3,7-dimethyl-4-oxo-4H-pyrido[1,2-a]pyrimidin-9-yl)ethyl)amino)-6-(trifluoromethyl) picolinic acid] |  | 
14 | 3950 nM | > 10000 nM | Cc1cc([C@@H](C)Nc2scnc2C(=O)O)c2nc(N3CCC(F)(F)CC3)c(C#N)c(=O)n2c1 [Example 11-292, (R)-5-((1-(3-cyano-2-(4,4-difluoropiperidin-1-yl)-7-methyl-4-oxo-4H-pyrido[1,2-a]pyrimidin-9-yl)ethyl)amino)thiazole-4-carboxylic acid] |  | 
15 | > 10000 nM | > 10000 nM | Cc1cc(C(=O)N2CCCCC2C(=O)O)c2nc(N3CCCCC3)cc(=O)n2c1 (stereo not drawn) [Example 11-346, 1-(7-methyl-4-oxo-2-(piperidin-1-yl)-4H-pyrido[1,2-a]pyrimidine-9-carbonyl)piperidine-2-carboxylic acid] |  | 
16 | 3270 nM | > 10000 nM | Cc1cc(C(C)Nc2ccccc2C(=O)O)c2nc(-c3cccnc3)cc(=O)n2c1 (stereo not drawn) [Example 11-401, 2-((1-(7-methyl-4-oxo-2-(pyridin-3-yl)-4H-pyrido[1,2-a]pyrimidin-9-yl)ethyl)amino)benzoic acid] |  | 
17 | > 10000 nM | > 10000 nM | C[C@H](Nc1ccccc1C(=O)O)c1cccn2c(=O)cc(N3CCCCC3)nc12 [Example 11-423, (S)-2-((1-(4-oxo-2-(piperidin-1-yl)-4H-pyrido[1,2-a]pyrimidin-9-yl)ethyl)amino)benzoic acid] |  | 
18 | 540 nM | > 10000 nM | CCN(CC)c1nc2c([C@@H](C)Nc3ccccc3C(=O)O)cc(C)cn2c(=O)c1C#N [Example 11-320, (R)-2-((1-(3-cyano-2-(diethylamino)-7-methyl-4-oxo-4H-pyrido[1,2-a]pyrimidin-9-yl)ethyl)amino)benzoic acid] |  | 
19 | 234 nM | > 10000 nM | Cc1cc([C@@H](C)Nc2ccccc2C(=O)O)c2nc(N3CC4CC(F)(F)CC4C3)c(C)c(=O)n2c1 (stereo partly drawn) [Example 11-444, 2-(((1R)-1-(2-(5,5-difluorohexahydrocyclopenta[c]pyrrol-2(1H)-yl)-3,7-dimethyl-4-oxo-4H-pyrido[1,2-a]pyrimidin-9-yl)ethyl)amino)benzoic acid] |  | 
20 | 1360 nM | > 10000 nM | Cc1cc([C@@H](C)Nc2ccccc2C(=O)O)c2nc(N3CCC[C@H](C(F)(F)F)C3)c(C)c(=O)n2c1 [Example 11-212, 2-(((R)-1-(3,7-dimethyl-4-oxo-2-((S)-3-(trifluoromethyl)piperidin-1-yl)-4H-pyrido[1,2-a]pyrimidin-9-yl)ethyl)amino)benzoic acid] |  | 
21 | > 10000 nM | > 10000 nM | Cc1cc(C(C)NCCC(=O)O)c2nc(N3CCCCC3)cc(=O)n2c1 (stereo not drawn) [Example 11-386] |  | 
22 | 124 nM | > 10000 nM | Cc1cc([C@@H](C)Nc2ccccc2C(=O)O)c2nc(N3CCN(c4ccc(C#N)c5cc(O)ccc45)CC3)c(C)c(=O)n2c1 [Example 11-254, (R)-2-((1-(2-(4-(4-cyano-6-hydroxynaphthalen-1-yl)piperazin-1-yl)-3,7-dimethyl-4-oxo-4H-pyrido[1,2-a]pyrimidin-9-yl)ethyl)amino)benzoic acid] |  | 
23 | 143 nM | 9930 nM | C[C@H](Nc1ccccc1C(=O)O)c1cc(C2CC2)cn2c(=O)c(C#N)c(N3Cc4ccccc4C3)nc12 [Example 11-327, (S)-2-((1-(3-cyano-7-cyclopropyl-2-(isoindolin-2-yl)-4-oxo-4H-pyrido[1,2-a]pyrimidin-9-yl)ethyl)amino)benzoic acid] |  | 
24 | 871 nM | > 10000 nM | Cc1cc([C@@H](C)Nc2ccccc2C(=O)O)c2nc(N3CC(c4cc(C(F)(F)F)on4)C3)c(C)c(=O)n2c1 [Example 11-442, (R)-2-((1-(3,7-dimethyl-4-oxo-2-(3-(5-(trifluoromethyl)isoxazol-3-yl)azetidin-1-yl)-4H-pyrido[1,2-a]pyrimidin-9-yl)ethyl)amino)benzoic acid] |  | 
